Literature values as cited in patent EP0985412B1, “Cyclosporin compositions” (Panacea Biotec Limited, priority 1998, dated 2000).

System: normal epithelial tissue and Peyer's patch tissue of guinea pigs

absorption raised by a factor: 5-6
Substance: Choleic acid
